Source: US9505798B2, “Steroid compounds as RORyt modulators and uses thereof” (New York University, priority 2010, dated 2016)
pIC50: −log10 of the molar value. Like-named read-outs stand apart in the source and are kept apart here.

Key:
mouse RORγt = target: T1, mouse RORγt (Mus musculus, UniProt P51450); assay: Drosophila S2 cell RORγt luciferase reporter; format: cell-based
T1 construct: mouse RORγt (amino acids 79 to the carboxyl terminal end); expressed in transfected cells
T1 sequence (P51450 79-495 isoform P51450-2): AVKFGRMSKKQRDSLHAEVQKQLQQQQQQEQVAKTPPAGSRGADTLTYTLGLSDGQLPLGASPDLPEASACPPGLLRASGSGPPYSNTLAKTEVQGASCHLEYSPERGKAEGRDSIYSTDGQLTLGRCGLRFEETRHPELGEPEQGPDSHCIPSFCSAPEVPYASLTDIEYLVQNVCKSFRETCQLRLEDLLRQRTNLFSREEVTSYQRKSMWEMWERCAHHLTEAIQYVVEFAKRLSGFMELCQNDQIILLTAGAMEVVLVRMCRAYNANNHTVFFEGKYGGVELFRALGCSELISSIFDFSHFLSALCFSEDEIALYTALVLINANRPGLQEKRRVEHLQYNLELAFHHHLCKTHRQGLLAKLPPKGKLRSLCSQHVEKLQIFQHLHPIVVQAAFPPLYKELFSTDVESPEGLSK
Excerpt: The Drosophila S2 cell line was originally purchased from Invitrogen and was maintained in Schneider's medium supplemented with 10% heat-inactivated bovine fetal calf serum and antibiotics (Invitrogen). […] The resulting chimeric gene was subcloned into the copper inducible pMT/V5-His A vector (Invitrogen). […] Coding sequences for firefly luciferase (Promega) were PCR amplified and subcloned into pUAST vector containing Gal4 binding enhancer sequences. Renilla luciferase construct under the polIII promoter was obtained from Dr. Dasgupta's laboratory (NYU medical center). In order to generate stable cell lines, cells were co-transfected with pMT-G4 DBD-RORγt, pMT-G4 DBD-RORα, pMT-G4 DBD-DHR3, or pMT-G4 DBDVP16 and pHygro plasmids (Invitrogen) and screened for resistant colonies in the presence of hygromycin (0.3 mg/mL). […] Using similar methods, stable clones with genomic integration of the luciferase reporters and other reporters were generated such as pMT-RORα_luc, pMT-DHR3_Luc, or pMT-VP16_luc.
The following representative compounds are tested for their RORγt inhibitory activity and toxicity.
Promega Dual-Glo system is widely used for HTS as the luciferase substrates. Cell culture medium was reduced to the final volume of 10 μl or less and 10 μl of Dual-glo and 10 μl of Stop-glo luciferase substrates were added in a sequencial manner (Promega). Firefly and Renilla luciferase activity was determined by measuring luminescence signals using an automated 384-well plate reader equipped with multiple stack units (such as the Analyst GT or Envision plate readers).
10,000 Drosophila stable S2 cells with genomic integration of the Cu2+-inducible G4 DBD-mouse RORγ construct were transfected with 5 ng of pUASTfirefly luciferase and 7 ng of Pol III-Renilla luciferase and dispensed into white bottom-tissue culture 384-well plates (Corning). […] The following morning, Stop-glo luciferase substrates (Promega) were used to measure luciferase activity.
The Drosophila S2 cell line was originally purchased from Invitrogen and was maintained in Schneider's Drosophila medium supplemented with 10% heat-inactivated bovine fetal calf serum and 1× antibiotic-antimycotic solution (Invitrogen). […] The resulting chimeric gene was subcloned into the copper inducible pMT/V5-His A vector (Invitrogen) and into the constitutive pAc vector. […] Coding sequences for firefly luciferase (Promega) were PCR amplified and subcloned into the pUAST vector containing five Gal4 binding enhancer sequences. The Renilla luciferase construct under a pol III promoter and the pAc vector were obtained from R. Dasgupta (NYU School of Medicine). To generate cell lines stably expressing various chimeric proteins upon copper addition, S2 cells were co-transfected with pMT plasmids encoding individual G4 DBD chimeric constructs and the pCoHygro plasmid (Invitrogen), before screening for resistant colonies in the presence of hygromycin (0.3 mg/mL). […] The human androgen receptor (hAR) expression plasmid pMK33-hAR and its reporter TAT3-Luc were obtained from M. Garabedian (NYU School of Medicine). […] R1881 (10 nM) and Dafachronic acid (10 μM) were used as ligands for hAR and Daf12. Upon treatment of cells with copper, in 384 well plates, there was specific increase in firefly luciferase activity versus normalized Renilla luciferase activity for all cell lines described above, validating the method for high-throughput screen.
Transfections of firefly and Renilla reporter constructs were performed using the Effectene kit from Qiagen according to the manufacturer's protocol with some modifications.

human RORγ LBD = target: T2, human RORγ LBD (Homo sapiens, UniProt P51449); assay: In vitro binding and competition assay (fluorescence polarization, fluorescein-labeled 25-hydroxycholesterol)
T2 construct: Human RORγ LBD (residues 262-518); 6×His-tag (N); thrombin cleavage site (N); made in house; host or cells: E. coli BL21-CodonPlus(DE3)-RIL, pET46 Ek/Lic vector
T2 sequence (P51449 262-518): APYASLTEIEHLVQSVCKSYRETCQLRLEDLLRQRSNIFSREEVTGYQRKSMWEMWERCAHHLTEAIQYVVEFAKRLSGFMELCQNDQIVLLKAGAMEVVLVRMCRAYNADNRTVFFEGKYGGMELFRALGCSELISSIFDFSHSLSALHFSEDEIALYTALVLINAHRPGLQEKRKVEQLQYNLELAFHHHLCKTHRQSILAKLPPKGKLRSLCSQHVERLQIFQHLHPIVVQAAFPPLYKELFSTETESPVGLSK
Method: All DNA constructs were generated by PCR-based methodology and confirmed by sequencing. […] IL-17a, IFN-γ, IL-4, and CCR6 protein expression was examined by intracellular or surface staining according to the manufacturer's protocol.
The cells were induced with 0.5 mM IPTG at 16° C. overnight, then collected and lysed in 20 mM Tris-HCl (pH 8.0), 500 mM NaCl, 20 mM imidazole and 10% glycerol. Supernatant was loaded onto a HisTrap™ FF crude 5 mL column on an AKTAxpress HPLC system. The protein was eluted with a 20-500 mM imidazole gradient, dialyzed overnight against 20 mM Tris-HCl (pH 8.0) and 200 mM NaCl, and further purified on a Q Sepharose™ Fast Flow anion exchange column (Amersham Biosciences). The flow-through fraction containing pure RORγ LBD protein was collected, and DTT was added to 10 mM immediately after calculating protein concentration by OD280. For the binding assay, 2 nM Fluorescein-labeled 25-hydroxycholesterol was incubated with purified RORγ LBD protein for 2 hrs at room temperature. Protein concentration was varied by serial dilution in binding buffer (20 mM Tris-HCl (pH 8.0), 200 mM NaCl, 10 mM DTT). Fluorescent polarization signals were measured with a Beacon 2000 (PanVera).

Compound	pIC50 (mouse RORγt)	effect on RORγ transcriptional activity (mouse RORγt)	pIC50 (human RORγ LBD)	pIC50 (mouse RORγt; S2 cell RORγt reporter, read-out: IC50)	pIC50 (mouse RORγt; read-out: IC50 (half-maximal inhibitory concentration), RORγ transcriptional activity)	pIC50 (human RORγ LBD; in vitro competition assay, human RORγ LBD, read-out: IC50, displacement of fluorescein-labeled 25-hydroxycholesterol)
CC1O[C@@H](OC2C(C)O[C@H](OC3C(C)O[C@@H](O[C@H]4CC[C@@]5(C)[C@H](CC[C@@H]6[C@@H]5C[C@@H](O)[C@]5(C)[C@@H](C(CO)CCO)CC[C@]65O)C4)C[C@H]3O)C[C@H]2O)C[C@@H](O)C1O (stereo partly drawn) [Compound 13, 20,22-Dihydrodigoxin-21,23-diol]	4.70 to 4.96	still possessed RORγ inhibitory activity	4.92	–	–	–
C[C@H]1O[C@@H](O[C@H]2[C@@H](O)C[C@H](O[C@H]3[C@@H](O)C[C@H](O[C@H]4CC[C@@]5(C)[C@H](CC[C@@H]6[C@@H]5C[C@@H](O)[C@]5(C)[C@@H](C7=CC(=O)OC7)CC[C@]65O)C4)O[C@@H]3C)O[C@@H]2C)C[C@H](O)[C@@H]1O [Digoxin]	–	–	–	5.00 to 6.00	5.70	5.39
